Consider 52 compounds from PubChem BioAssay AID179 (DTP/NCI, 2004).

This assay relates to CEM cells HIV-1 protection, formazan growth assay. Kind of assay: NCI AIDS Antiviral Assay. The settings on record: for IC50: measured here: growth of uninfected CEM cells. In short, it runs like this: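 CEM (human) cells, HIV-1 infected vs uninfected, 5-point dosing, formazan growth read-out. Retest threshold 50% protection.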

SMILES strings stand for the structures. Activity calls are given as the source filed them.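 Rule for the calls: active = compounds giving half or more protection of infected cells from virus-caused growth loss, again on retest; inactive = the rest.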 Where only a bound is given, the exact number is not on record here.

`CC(CO)CS(=O)(=O)O` (stereo unspecified): the EC50 was above 200 µM and the half-maximal inhibitory concentration (IC50) is above 200 µM. Consider `CP(C)(=S)P(C)(C)=S`, for which the EC50 is above 200 µM and the IC50 is 110 µM. Taken in the same sequence, the figures for `Nc1ncnc2c1ncn2CC(=O)NCCO` were above 200 µM and above 200 µM. As to `COc1cccc(C2CO2)c1` (stereo unspecified), the EC50 is above 200 µM and the IC50 turned out to be 151 µM. The like results for `Cc1occc1C(=S)Nc1ccc(Cl)c(/C=N/OC(C)C)c1` were, in that order, 0.0263 µM and 18.2 µM. On to `Cc1occc1C(=S)Nc1ccc(Cl)c(/C=N/OC2CCCC2)c1`, for which the EC50 is 0.174 µM and the IC50 was determined as 14.5 µM. For `C=C(C)CC1(O)C(=O)C(OCC)=C1OCC` (stereo unspecified), the EC50 is above 200 µM and the IC50 is above 200 µM. With `C=C1CN(S(=O)(=O)c2ccc(C)cc2)CCCN(C(C)CC)CCCN(S(=O)(=O)c2ccc(C)cc2)C1` (stereo unspecified), the EC50 was above 200 µM and the IC50 is above 200 µM. With `COc1cc2c(c(Cl)c1OC)CCN(C)CC2c1ccccc1` (stereo unspecified), the EC50 is above 200 µM and the 50% inhibitory concentration (IC50) came to 70.8 µM. The like results for `O=C(/C=C/c1ccccc1)Oc1cccc(O)c1` were, in that order, above 200 µM and 5.01 µM. Turning to `O=C1NC(=O)C(=Cc2ccc(Cl)cc2)C(=O)N1`, the EC50 was above 75.9 µM, the outcome was inactive and the IC50 is above 75.9 µM. With `Clc1nc(Cl)nc(NC23CC4CC(CC(C4)C2)C3)n1`, the EC50 is above 200 µM and the IC50 was determined as 107 µM. As to `Cc1cccc(C2OC(=O)c3c2ccc2ccccc32)c1` (stereo unspecified), the outcome was inactive. For the compound `COC(=O)c1cc(CC(C)C)c2c(c1)[nH]c1ccccc12`, the EC50 was above 35.5 µM and the IC50 is above 35.5 µM. In the case of `Fc1ccccc1C1SCc2nc3ncccc3n21` (stereo unspecified), the EC50 was above 95.5 µM and the half-maximal inhibitory concentration (IC50) is above 95.5 µM.

With `O=C(O)/C=C/c1ccc(O)cc1`, the EC50 was above 200 µM and the IC50 is above 200 µM. Regarding `COc1cccc(C2=NC(C(C)C)CO2)c1` (stereo unspecified), the EC50 was above 229 µM and the IC50 was above 229 µM.

As to `S=C(S)N1CCCCC1`, the EC50 is above 200 µM.

For the compound `NC(=O)C(=CN1C(=O)/C(=C/c2ccccc2O)SC1=S)C(N)=O`, the EC50 is above 200 µM and the IC50 was determined as 123 µM. `CCSC(CC(O)C(O)C(O)CO)SCC` (stereo unspecified): the EC50 was above 200 µM and the IC50 was above 200 µM. With `NCCN1C(=O)C2C3c4ccccc4C(c4ccccc43)C2C1=O` (stereo unspecified), the result was inactive. Consider `CCCC(=O)Nc1cc(/C=C/C(=O)N2CC(CCl)c3c2cc([N+](=O)[O-])c2ccccc32)n(C)c1` (stereo unspecified), for which the EC50 is above 2 µM and the IC50 worked out at 0.794 µM.

With `O=C(O)c1cc(=O)[nH]c(O)c1N=Nc1ccc(/C=C/c2ccc(N=Nc3c(C(=O)O)cc(=O)[nH]c3O)cc2S(=O)(=O)O)c(S(=O)(=O)O)c1`, the EC50 is above 200 µM and the IC50 was determined as 102 µM. The like results for `O=C1OC(c2ccccc2)=N/C1=C\c1ccc(Oc2ccc(Cl)c(Cl)c2)cc1` were, in that order, above 2.51 µM and above 2.51 µM. Take `CSc1c(C(N)=O)c2c(N)ncnc2n1C1OC(CO)C(O)C1O` (stereo unspecified): the EC50 is above 2 µM and the IC50 was 1.02 µM. Taken in the same sequence, the figures for `COc1ccc(C2c3cc4c(cc3OC(NNC(N)=O)C2C)OCO4)cc1` (stereo unspecified) were above 200 µM and 3.89 µM.

Take `c1cc(CSP234N5CCN2CCN3CCN4CC5)ccc1CSP123N4CCN1CCN2CCN3CC4`: the EC50 is above 100 µM and the IC50 is 36.3 µM. Taken in the same sequence, the figures for `O=C([O-])c1ccc2c(c1)-c1nc-2nc2[n-]c(nc3nc(nc4[n-]c(n1)c1ccc(C(=O)[O-])cc41)-c1ccc(C(=O)[O-])cc1-3)c1ccc(C(=O)[O-])cc21.[Gd+3].[K+]` were above 45.7 µM and above 45.7 µM. Turning to `COc1cc2c3c(c1OC)C1(C=CC(=O)C=C1)CC3N(C(=O)OC(C)(C)C(Cl)(Cl)Cl)CC2` (stereo unspecified), the result was inactive. `COc1ccc(C2c3cc(O)c(OC)cc3Oc3cc(OC)c(O)cc32)cc1`: the EC50 is above 200 µM and the IC50 came to 8.51 µM. For `NNC(=O)C1C(C(=O)NN)C2C3C=CC(C4C(=O)NC(=O)C34)C12` (stereo unspecified), the EC50 was above 200 µM and the IC50 was above 200 µM. With `CN(C)c1ccc(/C=C2\Oc3ccccc3C2=O)cc1`, the EC50 is above 200 µM and the IC50 is above 200 µM. As for `CC1Cc2cc(OCc3ccccc3)cc(OCc3ccccc3)c2[C@H](C)N1Cc1ccccc1` (stereo partly specified), the EC50 is above 200 µM and the IC50 is 14.5 µM. The like results for `C[N+]12CCCc3cccc(c31)CCC2` were, in that order, above 794 µM and 182 µM. The like results for `COC(=O)[C@@H]1C[C@@H](OS(=O)(=O)c2ccc(C)cc2)CN1S(=O)(=O)c1ccc(C)cc1` were, in that order, above 200 µM and 33.9 µM. For `COc1c(OC)c(C=O)c2c(OC)c(-c3c(C)cc4c(C(C)C)c(OC)c(OC)c(C=O)c4c3OC)c(C)cc2c1C(C)C`, the result was inactive. In the case of `CN(C)CCSc1nc(-c2cccs2)c2ccccc2n1`, the EC50 is above 115 µM and the IC50 amounted to 26.3 µM. The like results for `Clc1cccc(C2=NOC3COC4C=CC=CC4OCC23)c1` (stereo unspecified) were, in that order, above 58.9 µM and above 58.9 µM.

Take `COc1cc2c(cc1OC)C(C1C(=O)CC(C)(C)CC1=O)NCC2` (stereo unspecified): the outcome was inactive. In the case of `CN1CCN(CCCN2c3ccccc3Sc3ccccc32)CC1`, the EC50 was above 741 µM and the IC50 turned out to be 33.1 µM. The like results for `Cn1c(=O)[nH]c2c([nH]c(=O)c(=O)n2C)c1=O` were, in that order, above 200 µM and above 200 µM. As for `CCc1cc(Cc2cc(Cl)c(NC(=O)C(=O)C3NC(=O)NC3=O)c(CC)c2)cc(Cl)c1NC(=O)C(=O)C1NC(=O)NC1=O` (stereo unspecified), the EC50 is above 151 µM and the IC50 stood at 24.5 µM.

Take `COc1cccc(NC(=O)CC(=O)n2nc(-c3ccccc3)c(N=Nc3ccc(Cl)cc3)c2-c2ccccc2)c1`: the EC50 was above 200 µM and the IC50 is 11.5 µM. For the compound `Cc1ccc(S(=O)(=O)NCCN(CCNS(=O)(=O)c2ccc(C)cc2)S(=O)(=O)c2ccc(C)cc2)cc1`, the EC50 was above 200 µM and the IC50 was above 200 µM. Take `Cc1ccc(N(C(=O)CC(=O)N/N=C/c2ccccc2O)C(=O)c2ccccc2)cc1`: the result was inactive. For `O=C(/C=C/c1ccc(O)c(O)c1)NCCOC(=O)/C=C/c1ccc(O)c(O)c1`, the EC50 is above 200 µM and the IC50 came to 8.51 µM. Taken in the same sequence, the figures for `O=[N+]([O-])c1nccn1CCC[n+]1ccccc1` were above 200 µM and above 200 µM.

On to `CCN(CC)CCCC(C)Nc1ccnc2cc(Cl)ccc12` (stereo unspecified), for which the outcome was inactive.

In the case of `CC1=C2C(=CC(C)(CO)C2O)C(=O)C(C)(O)C12CC2` (stereo unspecified), the result was inactive.

For the compound `C=CC[C@@]12CC(C=CC13OCCO3)OC(=O)[C@@H]2C`, the EC50 is above 200 µM and the IC50 was above 200 µM. With `COC(=O)C[C@@H]1C(C)(C)[C@@H]2O[C@@]34C[C@@H]2C(=O)[C@]1(C)[C@H]3CC[C@@]1(C)[C@H](c2ccoc2)OC(=O)C[C@]14O`, the EC50 was above 200 µM and the IC50 was determined as 120 µM. Taken in the same sequence, the figures for `c1ccc([P+](CCCCCCCCCC[P+](c2ccccc2)(c2ccccc2)c2ccccc2)(c2ccccc2)c2ccccc2)cc1` were above 200 µM and 0.589 µM.
